Experimental data as given in patent US20180280393A1, “METHODS AND COMPOSITIONS FOR TREATMENT OF METASTATIC AND REFRACTORY CANCERS AND TUMORS” (The Wistar Institute of Anatomy and Biology, priority 2015, published 2018).

How the values were obtained:
[1] = test system: ERK1/2 phosphorylation; experiment: TCR ligation of human CD8 T cells, Western blot for ERK1/2 phosphorylation; format: cell-based
Method: FIG. 2C is a blot showing FACS-sorted human CD8 T cells that were stimulated by anti-CD3/CD28 crosslinking in the presence of the indicated compounds as described in methods. After 10 min, cells were harvested for Western blotting.
CD8+ cells were sorted from PBMCs and rested overnight in R10. T cells (0.5×10^6 per condition) were stained with OKT3-biotin (BioLegend, 10 μg/ml) for 15 mins on ice, and washed in cold PBS. TCR ligation was performed by adding streptavidin (Promega, 25 μg/ml) and anti-CD28 (Millipore, clone 15E8, 1 μg/ml) in the presence of indicated inhibitors for 10 min at 37° C.
Western blotting—Cells were lysed in RIPA buffer (Thermo Scientific) with protease inhibitors (Complete Protease Inhibitor Cocktail Tablets, Roche) and phosphatase inhibitors (Halt Phosphatase Inhibitor, Thermo Scientific, and Na3VO4, 1 mM) and cleared by centrifugation. Proteins were quantified by BCA assay (Thermo Scientific), diluted in reducing lamelli buffer, denatured by incubation at 95° C., run on mini Protean TGX Ready Gels (Bio-Rad Laboratories), transferred to a nitrocellulose membrane, blocked, and incubated with primary antibodies for p-ERK1/2 (Cell Signaling Technologies, clone D13.14.4E), p-AKT (Cell Signaling Technologies, clone D9E), beta-tubulin (Cell Signaling Technologies, clone 9F3), beta-actin (Sigma, clone AC-15), or IGF-1R (Cell Signaling Technologies, #3027). Immunoreactive bands were developed using horseradish peroxidase-conjugated secondary antibodies (Bio-Rad Laboratories) and ECL substrate (GE Healthcare).

[2] = test system: Brpkp110 cells; experiment: Brpkp110 cell proliferation, MTS assay; format: cell-based, mouse; conditions: in vitro, 2 days
Method: (§1) Cell proliferation assays—Cells were plated in 96-well plates. Compounds were added the next morning, and cell proliferation was measured 48 hrs later with the […] 96 MTS assay (Promega) according to the manufacturer's instructions. Molecular screening of compounds on A2780 cells was performed by adding compounds the morning after plating in 384-well plates and measuring proliferation 72 hrs later with resazurin fluorescence. Normalized percent inhibition (NPI) was calculated with respect to fluorescence values obtained with DMSO negative control and doxorubicin (5 μM) positive control as NPI=100%*(DMSO−compound)/(DMSO−doxorubicin). TCR ligation of human CD8 T cells

[3] = test system: osteopontin (SPP1); experiment: LC-MS/MS of culture supernatants from Brpkp110 cells; format: cell-based, mouse; conditions: 200 nM, 40 hrs
Method: Supernatants were collected, centrifuged, passed through a 0.22 μm filter, and concentrated by centrifugation in Amicon 3000 MWCO tubes (EMD Millipore). Concentrated sups were run 0.5 cm on a NuPage 12% Gel with MES buffer, extracted, and digested with trypsin.
Liquid chromatography tandem mass spectrometry (LC-MS/MS) analysis was performed by the Wistar Proteomics Facility using a Q Exactive Plus mass spectrometer (Thermo Scientific) coupled with a Nano-ACQUITY UPLC system (Waters). Samples were injected onto a UPLC Symmetry trap column (180 μm i.d.×2 cm packed with 5 μm C18 resin; Waters), and tryptic peptides were separated by RP-HPLC on a BEH C18 nanocapillary analytical column (75 μm i.d.×25 cm, 1.7 μm particle size; Waters) using a gradient formed by solvent A (0.1% formic acid in water) and solvent B (0.1% formic acid in acetonitrile). Peptides were eluted at 200 nL/min for 5-30% B over 225 min, 30-80% B over 5 min, constant 80% B for 10 min before returning to 5% B over 1 min. A 30-min blank gradient was run between sample injections to minimize carryover. Eluted peptides were analyzed by the mass spectrometer set to repetitively scan m/z from 400 to 2000. […]
MS data were analyzed with MaxQuant 1.5.2.8 software^42. […]

[4] = test system: human T cells; experiment: ConA-induced activation and expansion of human T cells (high-throughput screen); format: cell-based
Method: T cell stimulation—For human T cell proliferation assays, peripheral blood lymphocytes were obtained by leukapheresis/elutriation and Miltenyi bead-purified and K562 cells expressing human CD32 were generated as previously described^41. […] PBMCs were labeled with CELLTRACE Violet stain (Invitrogen) according to the manufacturer's instructions and cocultured with loaded K32 cells at a 10:1 T cells:K32 ratio or activated with ConA (2 μg/ml, Sigma). Proliferation of stimulated T cells was determined 7 days later by FACS and Division Index was calculated using FlowJo software.
(§2) EC50 values were calculated from normalized percent inhibition data using non-linear curve fitting in PRISM software.

[5] = test system: A2780 ovarian cancer cells; experiment: Molecular screening of compounds on A2780 cell proliferation (resazurin fluorescence); format: cell-based, human; conditions: except at a high concentration
Method: as §1, §2

[6] = test system: human T cells; experiment: aAPC (anti-CD3/anti-CD28)-induced human T cell proliferation, CELLTRACE; format: cell-based; conditions: 7 days
Method: Four plots show proliferation of CD8 cells after 7 days is shown. […] Proliferation of CD8 cells after 7 days is shown. T cell stimulation-For human T cell proliferation assays, peripheral blood lymphocytes were obtained by leukapheresis/elutriation and Miltenyi bead-purified and K562 cells expressing human CD32 were generated as previously described^41. […] were γ-irradiated (100 Gy) and loaded with anti-CD3 (500 ng/ml, clone OKT3; eBioscience) plus anti-CD28 (500 ng/ml, clone 15E8; EMD Millipore) antibodies at room temperature for 10 minutes. PBMCs were labeled with CELLTRACE Violet stain (Invitrogen) according to the manufacturer's instructions and cocultured with loaded […] cells at a 10:1 T cells:[…] ratio or activated with ConA (2 μg/ml, Sigma). Proliferation of stimulated T cells was determined 7 days later by FACS and Division Index was calculated using FlowJo software.

[7] = test system: MCF-7 tumor cells; experiment: MCF-7 cell proliferation, MTS assay; format: cell-based, human; conditions: 2 days
Method: Representative results from one of two independent experiments.
as §1

[8] = test system: human T cells; experiment: Cytokine rescue of human T cell proliferation from MEK inhibition; format: cell-based
Method: Proliferation of CD8 T cells after 7 days is shown.
FIG. 2D is a graph showing that human PBMCs were activated as in FIG. 2B with the indicated compounds, BKM120=2 μM.
Reported are percentages of cells that proliferated with GDC0973 relative to vehicle treatment with the same cytokines after 7 days. Stains are not depicted.
T cell stimulation—For human T cell proliferation assays, peripheral blood lymphocytes were obtained by leukapheresis/elutriation and Miltenyi bead-purified and K562 cells expressing human CD32 were generated as previously described^41. K32 were γ-irradiated (100 Gy) and loaded with anti-CD3 (500 ng/ml, clone OKT3; eBioscience) plus anti-CD28 (500 ng/ml, clone 15E8; EMD Millipore) antibodies at room temperature for 10 minutes. PBMCs were labeled with CELLTRACE Violet stain (Invitrogen) according to the manufacturer's instructions and cocultured with loaded K32 cells at a 10:1 T cells:K32 ratio or activated with ConA (2 μg/ml, Sigma). Proliferation of stimulated T cells was determined 7 days later by FACS and Division Index was calculated using FlowJo software.

CCCCCCCCCCCCCC(=O)O[C@@H]1[C@@H](C)[C@@]2(O)[C@@H](C=C(CO)C[C@]3(O)C(=O)C(C)=C[C@@H]23)[C@@H]2C(C)(C)[C@]12OC(C)=O [PMA, phorbol-12-myristate-13-acetate]
ERK phosphorylation under PI3K inhibition ([1]; without fully restoring AKT phosphorylation): completely overcomes the suppressive effect

CC(=O)Nc1cccc(-n2c(=O)n(C3CC3)c(=O)c3c(Nc4ccc(I)cc4F)n(C)c(=O)c(C)c32)c1 [trametinib]
growth compared to vehicle [2]: 70%
decrease of osteopontin (SPP1) in Brpkp110 supernatants [3]: > 18 fold
EC50 ([4]; T-cell, 168 h, human T cells activated with ConA for 7 days, N/A = ambiguous curve fits or EC50 greater than the highest concentration tested (25 μM)): 0.337 nM

C[C@]1(O)C[C@@H](c2nc(-c3ccc4ccc(-c5ccccc5)nc4c3)c3c(N)nccn32)C1 [OSI906]
activity on A2780 cells [5]: did not show any activity
proliferation of human T cells in response to aAPC coated with agonistic CD3 and CD28 antibodies [6]: did not impact
tumor cell proliferation of MCF-7 cells [7]: a reduction in tumor cell proliferation at concentrations that did not affect T cells
activity on T cells ([4]; except at a high concentration): did not show any activity

IL-15: recombinant human IL-15 (Novoprotein), proliferative cytokine
rescue of the defect in ERK phosphorylation in the presence of BKM120 ([1]; pan-PI3K inhibitor BKM120 present): unable to rescue
rescue of early TCR-induced MAPK signaling (ERK1/2 phosphorylation) from MEK inhibition ([1]; within 10 minutes): can rescue
rescue of T cell proliferation in the presence of the MEK inhibitors ([8]; GDC0973 or trametinib): able to rescue T cell proliferation
rescue of T cell expansion when PI3K and MEK inhibitors were combined ([8]; trametinib + BKM120): could not be fully rescued
